Reference: patent US12351789B2, “Method for producing cell laminate” (FUJIFILM CORPORATION, priority 2017, dated 2025)

Tested on: cell laminate comprising a vascular endothelial cell layer and a smooth muscle cell layer on an HCM
Experiment: Evaluation of response to physiologically active substances (thrombin added to cell laminate, microscopy)
Format: cell-based
Conditions: 37° C., 30 minutes, rat VEC/SMC-HCM insert
Experimental: (1) 0.1 mg (100 UN) of thrombin (#T7009-100UN, Sigma) was dissolved in 100 μL of physiological saline to prepare a thrombin solution having a concentration of 1000 U/mL. The thrombin solution was further diluted with HBSS(+) to prepare a 25 U/mL thrombin solution and a 100 U/mL thrombin solution.
(2) 900 μL of HBSS(+) was added to each of the wells of a 24-well plate.
(3) The inserts comprising the cell laminate were taken out of the medium, the medium was removed from the inner side of each insert using an aspirator, and the inserts were placed in the wells.
(4) 200 μL of either HBSS(+) (control), the 25 U/mL thrombin solution, or the 100 U/mL thrombin solution was added to the inner side of each of the inserts placed on the wells, and the inserts were incubated at 37° C. for 30 minutes.
(5) The state of the cell laminate was observed under a microscope. The microscopic image of the cell laminate is shown in FIG. 9 (superimposed image of red fluorescence: VE-cadherin and green fluorescence: α-smooth muscle actin).

Substance: thrombin
- cell contraction (25 U/mL or 100 U/mL thrombin solution, HBSS(+) control): cell contraction due to activation of actin stress fibers caused by the addition of thrombin was observed
- dependence of cell contraction on thrombin concentration (25 U/mL versus 100 U/mL thrombin solution): Higher thrombin concentrations caused stronger cell contractions
